Results reported in patent US11292770B2, “Pyridazinone herbicides” (FMC Corporation, priority 2017, dated 2022).

What was measured:
Assay type in all cases: in vivo
[1] = tested on: wheat (Triticum aestivum); test: Test A postemergence, wheat; conditions: 0 to 100 scale
Excerpt: (§1) Seeds of plant species selected from barnyardgrass (Echinochloa crus-galli), kochia (Kochia scoparia), ragweed (common ragweed, Ambrosia elation), ryegrass, Italian (Italian ryegrass, Lolium multiflorum), foxtail, green (green foxtail, Setaria viridis), and pigweed (Amaranthus retroflexus) were planted into a blend of loam soil and sand and treated preemergence with a directed soil spray using test chemicals formulated in a non-phytotoxic solvent mixture which included a surfactant. At the same time, plants selected from these weed species and also wheat (Triticum aestivum), corn (Zea mays), blackgrass (Alopecurus myosuroides), and galium (catchweed bedstraw, Galium aparine) were planted in pots containing the same blend of loam soil and sand and treated with postemergence applications of test chemicals formulated in the same manner Plants ranged in height from 2 to 10 cm and were in the one- to two-leaf stage for the postemergence treatment. Treated plants and untreated controls were maintained in a greenhouse for approximately 10 d, after which time all treated plants were compared to untreated controls and visually evaluated for injury. Plant response ratings, summarized in Table A, are based on a 0 to 100 scale where 0 is no effect and 100 is complete control. A dash (—) response means no test result.

[2] = tested on: ragweed (common ragweed, Ambrosia elation); test: Test A postemergence, ragweed; conditions: 0 to 100 scale
Excerpt: as §1

[3] = tested on: barnyardgrass (Echinochloa crus-galli); test: Test B flooded paddy test, barnyardgrass; conditions: Flood, 250 g ai/ha; scale of 0 to 100, 0 no effect, 100 complete control
Description: (§2) Plant species in the flooded paddy test selected from rice (Oryza sativa), sedge, umbrella (small-flower umbrella sedge, Cyperus difformis), ducksalad (Heteranthera limosa), and barnyardgrass (Echinochloa crus-galli) were grown to the 2-leaf stage for testing. At the time of treatment, test pots were flooded to 3 cm above the soil surface, treated by application of test compounds directly to the paddy water, and then maintained at that water depth for the duration of the test. Treated plants and controls were maintained in a greenhouse for 13 to 15 d, after which time all species were compared to controls and visually evaluated. Plant response ratings, summarized in Table B, are based on a scale of 0 to 100 where 0 is no effect and 100 is complete control. A dash (—) response means no test result.

[4] = tested on: blackgrass (Alopecurus myosuroides); test: Test A postemergence, blackgrass; conditions: 0 to 100 scale
Excerpt: as §1

[5] = tested on: ryegrass, Italian (Italian ryegrass, Lolium multiflorum); test: Test A postemergence, ryegrass, Italian; conditions: 0 to 100 scale
Excerpt: as §1

[6] = tested on: ragweed (common ragweed, Ambrosia elation); test: Test A preemergence, ragweed; conditions: 0 to 100 scale
Excerpt: as §1

kochia (Kochia scoparia) [7] = test: Test A preemergence, kochia; conditions: 0 to 100 scale
Excerpt: as §1

Foxtail, Giant [8] = test: Test A postemergence, foxtail, giant; conditions: 0 to 100 scale
[9] = tested on: galium (catchweed bedstraw, Galium aparine); test: Test A postemergence, galium; conditions: 0 to 100 scale
Excerpt: as §1

corn (Zea mays) = test: Test A postemergence, corn; conditions: 0 to 100 scale
Excerpt: as §1

[10] = tested on: pigweed (Amaranthus retroflexus); test: Test A preemergence, pigweed; conditions: 0 to 100 scale
Excerpt: as §1

Foxtail, Giant [11] = test: Test A preemergence, foxtail, giant; conditions: 0 to 100 scale
[12] = tested on: barnyardgrass (Echinochloa crus-galli); test: Test A postemergence, barnyardgrass; conditions: 0 to 100 scale
Excerpt: as §1

[13] = tested on: ryegrass, Italian (Italian ryegrass, Lolium multiflorum); test: Test A preemergence, ryegrass, Italian; conditions: 0 to 100 scale
Excerpt: as §1

kochia (Kochia scoparia) [14] = test: Test A postemergence, kochia; conditions: 0 to 100 scale
Excerpt: as §1

rice (Oryza sativa) = test: Test B flooded paddy test, rice; conditions: Flood, 250 g ai/ha; scale of 0 to 100
Description: as §2

[15] = tested on: ducksalad (Heteranthera limosa); test: Test B flooded paddy test, ducksalad; conditions: Flood, 250 g ai/ha; scale of 0 to 100
Description: as §2

[16] = tested on: sedge, umbrella (small-flower umbrella sedge, Cyperus difformis); test: Test B flooded paddy test, sedge, umbrella; conditions: Flood, 250 g ai/ha; scale of 0 to 100
Description: as §2

[17] = tested on: pigweed (Amaranthus retroflexus); test: Test A postemergence, pigweed; conditions: 0 to 100 scale
Excerpt: as §1

[18] = tested on: barnyardgrass (Echinochloa crus-galli); test: Test A preemergence, barnyardgrass; conditions: 0 to 100 scale
Excerpt: as §1

Structure (SMILES): C1COCCN1.Cn1nc(Cl)c(O)c(-c2c3ccccc3cc3ccccc23)c1=O [Compound 7]
- Plant response rating, Wheat ([1]; 31 g ai/ha): 0
- Plant response rating, Wheat ([1]; 125 g ai/ha): 0
- Plant response rating, Ragweed ([2]; 31 g ai/ha): 90
- Plant response rating, Ragweed ([2]; 125 g ai/ha): 100
- Plant response rating, Barnyardgrass [3]: 0
- Plant response rating, Blackgrass ([4]; 31 g ai/ha): 0
- Plant response rating, Blackgrass ([4]; 125 g ai/ha): 10
- Plant response rating, Ryegrass, Italian ([5]; 31 g ai/ha): 10
- Plant response rating, Ryegrass, Italian ([5]; 125 g ai/ha): 60
- Plant response rating, Ragweed ([6]; 31 g ai/ha): 0
- Plant response rating, Ragweed ([6]; 125 g ai/ha): 40
- Plant response rating, Kochia (kochia (Kochia scoparia) [7]; 31 g ai/ha): 0
- Plant response rating, Kochia (kochia (Kochia scoparia) [7]; 125 g ai/ha): 0
- Plant response rating, Foxtail, Giant (Foxtail, Giant [8]; 31 g ai/ha): 0
- Plant response rating, Foxtail, Giant (Foxtail, Giant [8]; 125 g ai/ha): 10
- Plant response rating, Galium ([9]; 31 g ai/ha): 70
- Plant response rating, Galium ([9]; 125 g ai/ha): 100
- Plant response rating, Corn (corn (Zea mays); 31 g ai/ha): 10
- Plant response rating, Corn (corn (Zea mays); 125 g ai/ha): 10
- Plant response rating, Pigweed ([10]; 31 g ai/ha): 60
- Plant response rating, Pigweed ([10]; 125 g ai/ha): 100
- Plant response rating, Foxtail, Giant (Foxtail, Giant [11]; 31 g ai/ha): 0
- Plant response rating, Foxtail, Giant (Foxtail, Giant [11]; 125 g ai/ha): 0
- Plant response rating, Barnyardgrass ([12]; 31 g ai/ha): 0
- Plant response rating, Barnyardgrass ([12]; 125 g ai/ha, 0 no effect, 100 complete control): 0
- Plant response rating, Ryegrass, Italian ([13]; 31 g ai/ha): 0
- Plant response rating, Ryegrass, Italian ([13]; 125 g ai/ha): 0
- Plant response rating, Kochia (kochia (Kochia scoparia) [14]; 31 g ai/ha): 0
- Plant response rating, Kochia (kochia (Kochia scoparia) [14]; 125 g ai/ha): 10
- Plant response rating, Rice (rice (Oryza sativa)): 0
- Plant response rating, Ducksalad [15]: 100
- Plant response rating, Sedge, Umbrella [16]: 100
- Plant response rating, Pigweed ([17]; 31 g ai/ha): 100
- Plant response rating, Pigweed ([17]; 125 g ai/ha): 100
- Plant response rating, Barnyardgrass ([18]; 31 g ai/ha): 0
- Plant response rating, Barnyardgrass ([18]; 125 g ai/ha): 0
